# Measured values: patent US9770460B2, “Non-digestible oligosaccharides for oral induction of tolerance against dietary proteins” (N.V. NUTRICIA, priority 2010, dated 2017)
# Where no end group is shown, it is not given here.
# System: whey sensitized animals
# Experiment: Mouse model of whey protein allergy: ear swelling after oral pretreatment with peptide mixtures (Example 4)
# Type: in vivo, mice
# Conditions: Example 4, pretreatment prior to whey sensitization
# Source text: Three- to four-week-old pathogen free female C3H/HeOuJ mice (Charles River Laboratories, Maastricht, The Netherlands) were used for this experiment. The mice were maintained on cow's milk protein free standard mouse chow (AIN-93G soy, Special Diets Services, Wijk bij Duurstede, the Netherlands).
# The AIN-93G control diet was mixed with non-digestible oligosaccharides (2% w/w). The same non-digestible oligosaccharides were used as in example 1.
# 18-amino-acid-long synthetic peptides of beta-lactoglobulin were obtained from JPT Peptide Technologies (Berlin, Germany) (Table 4). Whey protein was purchased from DMV International (Veghel, The Netherlands). […]. Phosphate-buffered saline (PBS) was obtained from Cambrex Bio Science (Verviers, Belgium).
# Shortly prior to the experiment, the peptides were suspended in PBS. The peptides were combined in three mixtures, namely peptides 1-4 in mixture 1, peptides 5-7 in mixture 2 and peptides 8 and 9 in mixture 3. The final concentration of each peptide in the mixture was 8 mg/ml. […] Before and 1 h after the challenge, the ear thickness was measured using a digital micrometer (Mitutoyo, Veenendaal, the Netherlands). The difference in the ear thickness (ear swelling) is an indication for the acute allergic response and is expressed as delta μm.
sequence,measurement,value
"AASDISLLDAQSAPLRVY [Peptide 3, beta-lactoglobulin AA 25-42]","allergic response / synergy with NDO, in words",did not show these synergistic effects with NDO
